Measurements taken from patent publication US20050238731A1, “Composition and method for treating the effects of diseases and maladies of the upper digestive tract” (priority 2003, published 2005).

Tests used:
[1] = open label observation for control of heart burn in volunteers; assay type: in vivo, human; settings: open label observations in people
From the text: The preferred ingredients of the dietary supplement formulations for preventing or treating or managing upper digestive disorders referred to in this patent including but not limited to acid related disease, H. pylori infection and ulcerogenic medications, drugs or substances such as alcohol, tobacco smoke or any other damaging agent that is ingested or absorbed in to the body that may cause upper digestive disturbance are listed in one formulation that has undergone open label observation for the control of the symptom heart burn in six volunteers with recurrent heart burn and this formulation was made in several batches of a chewable tablet with the following ingredients that have been modified from time to time. These chewable tablets contain the following ingredients with amounts listed in two chewable tablets. The range of the ingredients has been made in different dosage amounts of each ingredient and tested in at least two volunteers for each of six batches of varying dosage of ingredients. Each batch consistently relieved symptoms of mild moderate or severe heart burn in open labeled observations in volunteers with symptoms of gastresophageal reflux disease.

[2] = tested on: stomach acid secretion; settings: rat model, cited from earlier work
[3] = tested on: gastric acid secretion; settings: cited from earlier work

| Compound | dyspepsia and heartburn [1] | stomach acid secretion ([2]; at a certain dosage level) | stomach ulcers [2] | development of stomach ulcers ([3]; animals exposed to cold water immersion or restraint) | gastric acid secretion ([3]; animals) | formation of gastric ulcers ([3]; pylorus-ligated animals) |
| --- | --- | --- | --- | --- | --- | --- |
| O=c1oc2c(O)c(O)cc3c(=O)oc4c(O)c(O)cc1c4c23 [ellagic acid] | has helped people with dyspepsia and heartburn | stomach acid secretion was blocked | ulcers could be prevented in part |  |  |  |
| salvianolic acid |  |  |  | prevents the development of stomach ulcers | reduce gastric acid secretion | reduce the formation of gastric ulcers |
